Data on 14 molecules can be found in patent publication US20260337212A1, “IP4-4,6 SUBSTITUTED DERIVATIVE COMPOUNDS FOR USE IN THE TREATMENT, INHIBITION OF PROGRESSION, AND PREVENTION OF ECTOPIC CALCIFICATION” (SANIFIT THERAPEUTICS, S.A., priority 2022, published 2026).

pEC50: −log10 of the molar value. Structures can show the parent of a compound that is named as a salt. A value given as a limit tells only on which side of the number the result lay.

Experiment [1] in a line: In vitro inhibition of calcium phosphate crystallization in human plasma (spectrophotometric). It counts as biochemical. The note with it: 0-100 μM, 1.5 mM phosphate, 12.5 mM calcium, pH 7.4, 30 min, rt, read-out: Relative Potency (EC50, inhibition of calcium phosphate crystallization). Here is the method: The in vitro efficacy of the IP4-4,6 substituted derivatives (e.g., Compounds 1 to 53) of the invention on the inhibition of calcium phosphate crystallization in human plasma samples was evaluated according to a spectrophotometric assay previously described in the art (Ferrer M, et al., Sci Rep 2017; 7:6858, doi:10.1038/s41598-017-07203-x).
A 96-well plate was employed. Plasma was spiked (1 volume of the IP4-4,6 substituted derivatives of the invention per 19 volumes of plasma) with increasing concentrations of the derivatives in the range of 0-100 μM. Plasma was then centrifuged at 10,000 g at rt and subsequently mixed with a mixture of 5 mM hydrogen phosphate and 41.67 mM calcium to attain final concentrations of 1.5 mM phosphate and 12.5 mM calcium, respectively. All reagent solutions were filtered, and pH adjusted to 7.4.
Crystallization of calcium phosphate was monitored spectrophotometrically for 30 min at rt by measuring the increments in absorbance at 550 nm using the Biotek Powerwave XS Microplate spectrophotometer (BioTek Instruments, Inc., Winooski, VT, US). The plate was incubated at rt in an orbital shaker and absorbance measured every 3 min.
Plasma crystallization was assessed based on slope measurement in the linear range between 6 and 24 min from plots of increase in absorbance versus logarithm of time. The efficacy of different myo-inositol phosphates derivatives in preventing in vitro formation of calcium phosphate crystals was assessed in human plasma samples using the slopes obtained between 6- and 24-min. Inhibition of crystallization was measured by comparing the slopes of the control sample (blank plasma) with those of samples containing the inhibitor as shown below: […]

Experiment [2] is described as follows: Rat calcinosis cutis/calciphylaxis model (vitamin D3 and FeCl3): skin plaque calcification. It counts as in vivo, Sprague Dawley rat. Particulars: 60 mg/kg s.c. daily D1-D8; HC (vitamin D3 50,000 IU/kg), FeCl3 0.5 mg/kg. Here is the method: The dose-response efficacy of IP4-4,6 derivatives in the prevention and treatment of calcinosis cutis and calciphylaxis (CUA) induced by vitamin D3 and FeCl3 in a rat model was used. The model evaluated the effects of Compound 27 and IP6 on the formation of calcified skin plaques in rats for a duration of 8 days. Animals were sensitized at low concentration (LC, 35,000 IU/kg) and high concentration (HC, 50,000 IU/kg) doses of vitamin D3. A FeCl3 solution (0.5 mg/kg) was used as challenger to induce the formation of skin plaques. All animals were weighed every day before treatment.
Eighty-six male Sprague Dawley (SD) rats (Envigo Corp., Huntingdon, GB) weighing approximately 250-300 g were used. The animals were fed with a standard LASQCdiet® Rod14-H diet (LASvendi, Soest, DE). The animals were divided in 8 groups, 6 to 12 animals per group, as follows:
The following solutions were prepared: (a) 17,500 IU/mL (LC) and 25,000 IU/mL (HC) vitamin D3 (cholecalciferol, Duphafral D3 1000; Zoetis Inc., Parsippany, NJ, US), (b) 0.3 mg/mL FeCl3 (FeCl3·6H2O, 99%, Scharlab S. L., Barcelona, E S), (c) 30 mg/mL IP6 (660 g/mol phytic acid, pH 6.5-7.7), and (d) 15, 30, and 50 mg/mL Compound 27 (754.45 g/mol free acid, pH 6.5-7.7). All solutions were prepared in a 0.9% (w/v) physiological saline NaCl medium. An application volume of 2 mL/kg was employed.
Group 1—Control (sham), 6 animals. Animals in group 1 were administered subcutaneously physiological saline (0.9% (w/v) NaCl solution daily from D1 to D3 in the interscapular space, and with one saline 0.9% injection at each of the two ventral sites in the thorax on D4. Animals in group 1 were not administered Vit D or FeCl3 solutions.
Group 2—Physiological saline solution low concentration (Vehicle LC): Vit D 35,000 IU/kg, 0.5 mg/kg FeCl3 solution, 10 animals. Vit D at dose 35,000 IU/kg was administered subcutaneously x 3 consecutive days (D1, D2, D3), and one 0.5 mg/kg FeCl3 injection at each of the two ventral sites in the thorax on D4. This group received a daily saline 0.9% s.c. treatment (D1 to D8).
Group 3—Compound 27 60 mg/kg LC: Vit D 35,000 IU/kg, 0.5 mg/kg FeCl3, 10 animals. Vit D at dose 35,000 IU/kg was administered subcutaneously x 3 consecutive days (D1, D2, D3), and one 0.5 mg/kg FeCl3 injection at each of the two ventral sites in the thorax on D4. This group received a daily Compound 27 s.c. treatment at 60 mg/kg dose (D1 to D8).
Group 4—Physiological saline solution high concentration (Vehicle HC): Vit D 50,000 IU/kg, 0.5 mg/kg FeCl3, 12 animals. Vit D at dose 50,000 IU/kg was administered subcutaneously x 3 consecutive days (D1, D2, D3), and one 0.5 mg/kg FeCl3 injection at each of the two ventral sites in the thorax on D4. This group received a daily saline 0.9% s.c. treatment (D1 to D8).
Group 5—IP6 60 mg/kg HC, Vit D 50,000 IU/kg, 0.5 mg/kg FeCl3, 12 animals. Vit D at dose 50,000 IU/kg was administered subcutaneously x 3 consecutive days (D1, D2, D3), and one 0.5 mg/kg FeCl3 injection at each of the two ventral sites in the thorax on D4. This group received a daily IP6 s.c. treatment at 60 mg/kg dose (D1 to D8).
Group 6—Compound 27 30 mg/kg HC, Vit D 50,000 IU/kg, 0.5 mg/kg FeCl3, 12 animals. Vit D at dose 50,000 IU/kg was administered subcutaneously x 3 consecutive days (D1, D2, D3), and one 0.5 mg/kg FeCl3 injection at each of the two ventral sites in the thorax on D4. This group received a daily Compound 27 s.c. treatment at 30 mg/kg dose (D1 to D8).
Group 7—Compound 27 60 mg/kg […], Vit D 50,000 IU/kg, 0.5 mg/kg FeCl3, 12 animals. Vit D at dose 50,000 IU/kg was administered subcutaneously x 3 consecutive days (D1, D2, D3), and one 0.5 mg/kg FeCl3 injection at each of the two ventral sites in the thorax on D4. This group received a daily Compound 27 s.c. treatment at 60 mg/kg dose (D1 to D8).
Group 8—Compound 27 100 mg/kg HC, Vit D 50,000 IU/kg, 0.5 mg/kg FeCl3, 12 animals. […]

One may read the pEC50 as −log10 of the EC50, conventionally taken in molar units. As to `NCCCCCCCCCCO[C@@H]1[C@@H](OP(=O)(O)O)[C@H](OCCCCCCCCCCN)[C@@H](OP(=O)(O)O)[C@@H](OP(=O)(O)O)[C@H]1OP(=O)(O)O` [Compound 15, 4,6-O-bis(10-aminodecyl)-myo-inositol-1,2,3,5-tetrakis(phosphate) octasodium salt], in experiment [1], the pEC50 was under 5.00.

Take “4,6-O-(6-(4-carboxy-1H-1,2,3-triazol-1-yl) hexyl)-myo-inositol-1,2,3,5-tetrakis(phosphate) decasodium salt [Compound 40]”: in experiment [1], the pEC50 was at least 5.30.

For `COCCCCCOC1C(OP(O)(O)=S)C(OCCCCCOC)C(OP(O)(O)=S)C(OP(O)(O)=S)C1OP(O)(O)=S` (centres unmarked) [Compound 51, 4,6-O-bis(5-Methoxypentyl)-myo-inositol-1,2,3,5-tetrakis(thiophosphate) octasodium salt], the negative logarithm of the EC50 (pEC50) in experiment [1] is under 5.00.

“4,6-O-bis(5-carboxypentyl)-myo-inositol-1,2,3,5-tetrakis(phosphate) decasodium salt [Compound 18]”: the pEC50 in experiment [1] was at least 5.30.

On to “4,6-O-bis(3-(3-phenylureido)propyl)-myo-inositol-1,2,3,5-tetrakis(phosphate) octasodium salt [Compound 46]”, for which the pEC50 in experiment [1] is 5.00 to 5.30.

Take `O=P(O)(O)OC1C(OCCC2CC2)C(OP(=O)(O)O)C(OP(=O)(O)O)C(OP(=O)(O)O)C1OCCC1CC1` (centres unmarked) [Compound 28, 4,6-O-bis(2-cyclopropylethyl)-myo-inositol-1,2,3,5-tetrakis(phosphate) octasodium salt]: in experiment [1], the negative-log EC50 (pEC50) is at least 5.30.

Turning to `O=C(O)CCn1cc(CO[C@@H]2[C@@H](OP(=O)(O)O)[C@H](OCc3cn(CCC(=O)O)nn3)[C@@H](OP(=O)(O)O)[C@@H](OP(=O)(O)O)[C@H]2OP(=O)(O)O)nn1` [Compound 31, 4,6-O-bis((1-(2-carboxyethyl)-1H-1,2,3-triazol-4-yl)methyl)-myo-inositol-1,2,3,5-tetrakis(phosphate) decasodium salt], the pEC50 in experiment [1] was at least 5.30.

With `O=P(O)(O)O[C@@H]1[C@@H](OCCC2CCCC2)[C@H](OP(=O)(O)O)[C@H](OP(=O)(O)O)[C@H](OP(=O)(O)O)[C@H]1OCCC1CCCC1` [Compound 29, 4,6-O-bis(2-cyclopentylethyl)-myo-inositol-1,2,3,5-tetrakis(phosphate) octasodium salt], the pEC50 in experiment [1] is at least 5.30.

`COCCCCCCn1cc(COC2C(OP(=O)(O)O)C(OCc3cn(CCCCCCOC)nn3)C(OP(=O)(O)O)C(OP(=O)(O)O)C2OP(=O)(O)O)nn1` (centres unmarked) [Compound 33, 4,6-O-bis((1-(6-methoxyhexyl)-1H-1,2,3-triazol-4-yl)methyl)-myo-inositol-1,2,3,5-tetrakis(phosphate) octasodium salt]: the negative-log EC50 (pEC50) in experiment [1] was 5.00 to 5.30.

Regarding “4,6-O-bis(5-(4-(methoxymethyl)-1H-1,2,3-triazol-1-yl) pentyl)-myo-inositol-1,2,3,5-tetrakis(phosphate) octasodium salt [Compound 38]”, the pEC50 in experiment [1] was at least 5.30.

With `O=P(O)(O)OC1C(OCCCc2cccc(C(F)(F)F)c2)C(OP(=O)(O)O)C(OP(=O)(O)O)C(OP(=O)(O)O)C1OCCCc1cccc(C(F)(F)F)c1` (centres unmarked) [Compound 44, 4,6-O-bis(3-(3-(trifluoromethyl)phenyl)propyl)-myo-inositol-1,2,3,5-tetrakis(phosphate) octasodium salt], the pEC50 in experiment [1] was under 5.00.

`NCCCCCO[C@@H]1[C@@H](OP(=O)(O)O)[C@H](OCCCCCN)[C@@H](OP(=O)(O)O)[C@@H](OP(=O)(O)O)[C@H]1OP(=O)(O)O` [Compound 14, 4,6-O-bis(5-aminopentyl)-myo-inositol-1,2,3,5-tetrakis(phosphate) octasodium salt]: the negative-log EC50 (pEC50) in experiment [1] is at least 5.30.

Turning to `O=C(NCCCOC1C(OP(=O)(O)O)C(OCCCNC(=O)NC2CCCC2)C(OP(=O)(O)O)C(OP(=O)(O)O)C1OP(=O)(O)O)NC1CCCC1` (centres unmarked) [Compound 47, 4,6-O-bis(3-(3-cyclopentylureido)propyl)-myo-inositol-1,2,3,5-tetrakis(phosphate) octasodium salt], in experiment [1], the negative-log EC50 (pEC50) is at least 5.30.

As to `O=P(O)(O)O[C@H]1[C@H](OP(=O)(O)O)[C@@H](OP(=O)(O)O)[C@H](OP(=O)(O)O)[C@@H](OP(=O)(O)O)[C@H]1OP(=O)(O)O` [IP6, phytic acid, reference compound], the “Skin plaque % inhibition of calcification” value in experiment [2] worked out at 58.8 ± 14.4 %.
